According to ChEMBL document CHEMBL1151464 (2008):
Values after ≈ are worked out from the molar mass of the structure shown.

Assays:
Type in all cases: functional
Pseudomonas aeruginosa [1] = assay: Antibacterial activity against Pseudomonas aeruginosa isolate 328 after 24 hrs by CLSI microdilution method
Pseudomonas aeruginosa [2] = assay: Antibacterial activity against Pseudomonas aeruginosa isolate 367 after 24 hrs by CLSI microdilution method
Acinetobacter baumannii [3] = assay: Antibacterial activity against Acinetobacter baumannii isolate 934 after 24 hrs by CLSI microdilution method
Pseudomonas aeruginosa [4] = assay: Antibacterial activity against Pseudomonas aeruginosa isolate 324 after 24 hrs by CLSI microdilution method
Pseudomonas aeruginosa [5] = assay: Antibacterial activity against Pseudomonas aeruginosa isolate 350 after 24 hrs by CLSI microdilution method
Acinetobacter baumannii [6] = assay: Antibacterial activity against Acinetobacter baumannii isolate 930 after 24 hrs by CLSI microdilution method
Pseudomonas aeruginosa [7] = assay: Antibacterial activity against Pseudomonas aeruginosa isolate 354 after 24 hrs by CLSI microdilution method
Pseudomonas aeruginosa [8] = assay: Antibacterial activity against Pseudomonas aeruginosa isolate 370 after 24 hrs by CLSI microdilution method
Pseudomonas aeruginosa [9] = assay: Antibacterial activity against Pseudomonas aeruginosa isolate 327 after 24 hrs by CLSI microdilution method
Pseudomonas aeruginosa [10] = assay: Antibacterial activity against Pseudomonas aeruginosa isolate 329 after 24 hrs by CLSI microdilution method
Acinetobacter baumannii [11] = assay: Antibacterial activity against Acinetobacter baumannii isolate 883 after 24 hrs by CLSI microdilution method
Pseudomonas aeruginosa [12] = assay: Antibacterial activity against Pseudomonas aeruginosa isolate 374 after 24 hrs by CLSI microdilution method
Pseudomonas aeruginosa [13] = assay: Antibacterial activity against Pseudomonas aeruginosa isolate 360 after 24 hrs by CLSI microdilution method
Acinetobacter baumannii [14] = assay: Antibacterial activity against Acinetobacter baumannii isolate 906 after 24 hrs by CLSI microdilution method
Acinetobacter baumannii [15] = assay: Antibacterial activity against Acinetobacter baumannii isolate 893 after 24 hrs by CLSI microdilution method
Pseudomonas aeruginosa [16] = assay: Antibacterial activity against Pseudomonas aeruginosa isolate 332 after 24 hrs by CLSI microdilution method
Acinetobacter baumannii [17] = assay: Antibacterial activity against Acinetobacter baumannii isolate 899 after 24 hrs by CLSI microdilution method
Pseudomonas aeruginosa [18] = assay: Antibacterial activity against Pseudomonas aeruginosa isolate 376 after 24 hrs by CLSI microdilution method
Pseudomonas aeruginosa [19] = assay: Antibacterial activity against Pseudomonas aeruginosa isolate 346 after 24 hrs by CLSI microdilution method
Acinetobacter baumannii [20] = assay: Antibacterial activity against Acinetobacter baumannii isolate 913 after 24 hrs by CLSI microdilution method
Pseudomonas aeruginosa [21] = assay: Antibacterial activity against Pseudomonas aeruginosa isolate 373 after 24 hrs by CLSI microdilution method
Pseudomonas aeruginosa [22] = assay: Antibacterial activity against Pseudomonas aeruginosa isolate 348 after 24 hrs by CLSI microdilution method
Acinetobacter baumannii [23] = assay: Antibacterial activity against Acinetobacter baumannii isolate 925 after 24 hrs by CLSI microdilution method
Pseudomonas aeruginosa [24] = assay: Antibacterial activity against Pseudomonas aeruginosa isolate 372 after 24 hrs by CLSI microdilution method
Acinetobacter baumannii [25] = assay: Antibacterial activity against Acinetobacter baumannii isolate 927 after 24 hrs by CLSI microdilution method
Acinetobacter baumannii [26] = assay: Antibacterial activity against Acinetobacter baumannii isolate 896 after 24 hrs by CLSI microdilution method
Pseudomonas aeruginosa [27] = assay: Antibacterial activity against Pseudomonas aeruginosa isolate 335 after 24 hrs by CLSI microdilution method
Acinetobacter baumannii [28] = assay: Antibacterial activity against Acinetobacter baumannii isolate 926 after 24 hrs by CLSI microdilution method
Acinetobacter baumannii [29] = assay: Antibacterial activity against Acinetobacter baumannii isolate 924 after 24 hrs by CLSI microdilution method
Pseudomonas aeruginosa [30] = assay: Antibacterial activity against Pseudomonas aeruginosa isolate 334 after 24 hrs by CLSI microdilution method
Pseudomonas aeruginosa [31] = assay: Antibacterial activity against Pseudomonas aeruginosa isolate 357 after 24 hrs by CLSI microdilution method
Acinetobacter baumannii [32] = assay: Antibacterial activity against Acinetobacter baumannii isolate 884 after 24 hrs by CLSI microdilution method
Pseudomonas aeruginosa [33] = assay: Antibacterial activity against Pseudomonas aeruginosa isolate 337 after 24 hrs by CLSI microdilution method
Acinetobacter baumannii [34] = assay: Antibacterial activity against Acinetobacter baumannii isolate 932 expressing OXA-24 and OXA-51 beta-lactamase after 24 hrs by CLSI microdilution method
Pseudomonas aeruginosa [35] = assay: Antibacterial activity against Pseudomonas aeruginosa isolate 331 after 24 hrs by CLSI microdilution method
Acinetobacter baumannii [36] = assay: Antibacterial activity against Acinetobacter baumannii isolate 897 after 24 hrs by CLSI microdilution method
Acinetobacter baumannii [37] = assay: Antibacterial activity against Acinetobacter baumannii isolate 900 after 24 hrs by CLSI microdilution method
Acinetobacter baumannii [38] = assay: Antibacterial activity against Acinetobacter baumannii isolate 886 after 24 hrs by CLSI microdilution method
Acinetobacter baumannii [39] = assay: Antibacterial activity against Acinetobacter baumannii isolate 931 after 24 hrs by CLSI microdilution method
Pseudomonas aeruginosa [40] = assay: Antibacterial activity against Pseudomonas aeruginosa isolate 352 after 24 hrs by CLSI microdilution method
Pseudomonas aeruginosa [41] = assay: Antibacterial activity against Pseudomonas aeruginosa isolate 355 after 24 hrs by CLSI microdilution method
Pseudomonas aeruginosa [42] = assay: Antibacterial activity against Pseudomonas aeruginosa isolate 361 after 24 hrs by CLSI microdilution method
Pseudomonas aeruginosa [43] = assay: Antibacterial activity against Pseudomonas aeruginosa isolate 322 after 24 hrs by CLSI microdilution method
Acinetobacter baumannii [44] = assay: Antibacterial activity against Acinetobacter baumannii isolate 891 after 24 hrs by CLSI microdilution method; conditions: isolate 891, 24 h

Compound: COLISTIN
- MIC (Pseudomonas aeruginosa [1]): 2 µg/mL
- MIC (Pseudomonas aeruginosa [2]): 0.5 µg/mL
- MIC (Acinetobacter baumannii [3]): 8 µg/mL
- MIC (Pseudomonas aeruginosa [4]): 2 µg/mL
- MIC (Pseudomonas aeruginosa [5]): 1 µg/mL
- MIC (Acinetobacter baumannii [6]): 0.25 µg/mL
- MIC (Pseudomonas aeruginosa [7]): 0.5 µg/mL
- MIC (Pseudomonas aeruginosa [8]): 2 µg/mL
- MIC (Pseudomonas aeruginosa [9]): 2 µg/mL
- MIC (Pseudomonas aeruginosa [10]): 1 µg/mL
- MIC (Acinetobacter baumannii [11]): 32 µg/mL
- MIC (Pseudomonas aeruginosa [12]): 1 µg/mL
- MIC (Pseudomonas aeruginosa [13]): 1 µg/mL
- MIC (Acinetobacter baumannii [14]): 4 µg/mL
- MIC (Acinetobacter baumannii [15]): 0.5 µg/mL
- MIC (Pseudomonas aeruginosa [16]): 0.5 µg/mL
- MIC (Acinetobacter baumannii [17]): 32 µg/mL
- MIC (Pseudomonas aeruginosa [18]): 0.25 µg/mL
- MIC (Pseudomonas aeruginosa [19]): 2 µg/mL
- MIC (Acinetobacter baumannii [20]): 0.25 µg/mL
- MIC (Pseudomonas aeruginosa [21]): 1 µg/mL
- MIC (Pseudomonas aeruginosa [22]): 1 µg/mL
- MIC (Acinetobacter baumannii [23]): 16 µg/mL
- MIC (Pseudomonas aeruginosa [24]): 1 µg/mL
- MIC (Acinetobacter baumannii [25]): 2 µg/mL
- MIC (Acinetobacter baumannii [26]): 2 µg/mL
- MIC (Pseudomonas aeruginosa [27]): 1 µg/mL
- MIC (Acinetobacter baumannii [28]): 2 µg/mL
- MIC (Acinetobacter baumannii [29]): 2 µg/mL
- MIC (Pseudomonas aeruginosa [30]): 1 µg/mL
- MIC (Pseudomonas aeruginosa [31]): 2 µg/mL
- MIC (Acinetobacter baumannii [32]): 2 µg/mL
- MIC (Pseudomonas aeruginosa [33]): 1 µg/mL
- MIC (Acinetobacter baumannii [34]): 0.5 µg/mL
- MIC (Pseudomonas aeruginosa [35]): 0.5 µg/mL
- MIC (Acinetobacter baumannii [36]): 4 µg/mL
- MIC (Acinetobacter baumannii [37]): 2 µg/mL
- MIC (Acinetobacter baumannii [38]): 1 µg/mL
- MIC (Acinetobacter baumannii [39]): 4 µg/mL
- MIC (Pseudomonas aeruginosa [40]): 4 µg/mL
- MIC (Pseudomonas aeruginosa [41]): 1 µg/mL
- MIC (Pseudomonas aeruginosa [42]): 1 µg/mL
- MIC (Pseudomonas aeruginosa [43]): 0.5 µg/mL

Compound: C[C@@H](O)[C@H]1C(=O)N2C(C(=O)O)=C(S[C@@H]3CN[C@H](C(=O)N(C)C)C3)[C@H](C)[C@H]12 [MEROPENEM]
- MIC (Pseudomonas aeruginosa [1]; isolate 328, 24 h): 2 µg/mL (≈ 5.22 µM)
- MIC (Pseudomonas aeruginosa [2]; isolate 367, 24 h): 0.25 µg/mL (≈ 0.652 µM)
- MIC (Acinetobacter baumannii [3]; isolate 934, 24 h): 32 µg/mL (≈ 83.4 µM)
- MIC (Pseudomonas aeruginosa [4]; isolate 324, 24 h): 0.25 µg/mL (≈ 0.652 µM)
- MIC (Pseudomonas aeruginosa [5]; isolate 350, 24 h): 2 µg/mL (≈ 5.22 µM)
- MIC (Acinetobacter baumannii [6]; isolate 930, 24 h): 0.25 µg/mL (≈ 0.652 µM)
- MIC (Pseudomonas aeruginosa [7]; isolate 354, 24 h): 0.12 µg/mL (≈ 0.313 µM)
- MIC (Pseudomonas aeruginosa [8]; isolate 370, 24 h): 1 µg/mL (≈ 2.61 µM)
- MIC (Pseudomonas aeruginosa [9]; isolate 327, 24 h): 2 µg/mL (≈ 5.22 µM)
- MIC (Pseudomonas aeruginosa [10]; isolate 329, 24 h): 0.5 µg/mL (≈ 1.3 µM)
- MIC (Acinetobacter baumannii [11]; isolate 883, 24 h): 1 µg/mL (≈ 2.61 µM)
- MIC (Pseudomonas aeruginosa [12]; isolate 374, 24 h): 0.5 µg/mL (≈ 1.3 µM)
- MIC (Pseudomonas aeruginosa [13]; isolate 360, 24 h): 0.25 µg/mL (≈ 0.652 µM)
- MIC (Acinetobacter baumannii [14]; isolate 906, 24 h): 1 µg/mL (≈ 2.61 µM)
- MIC (Acinetobacter baumannii [15]; isolate 893, 24 h): 2 µg/mL (≈ 5.22 µM)
- MIC (Pseudomonas aeruginosa [16]; isolate 332, 24 h): 4 µg/mL (≈ 10.4 µM)
- MIC (Acinetobacter baumannii [17]; isolate 899, 24 h): 32 µg/mL (≈ 83.4 µM)
- MIC (Pseudomonas aeruginosa [18]; isolate 376, 24 h): 16 µg/mL (≈ 41.7 µM)
- MIC (Pseudomonas aeruginosa [19]; isolate 346, 24 h): 1 µg/mL (≈ 2.61 µM)
- MIC (Acinetobacter baumannii [20]; isolate 913, 24 h): 0.25 µg/mL (≈ 0.652 µM)
- MIC (Pseudomonas aeruginosa [21]; isolate 373, 24 h): 2 µg/mL (≈ 5.22 µM)
- MIC (Pseudomonas aeruginosa [22]; isolate 348, 24 h): 0.25 µg/mL (≈ 0.652 µM)
- MIC (Acinetobacter baumannii [23]; isolate 925, 24 h): 1 µg/mL (≈ 2.61 µM)
- MIC (Pseudomonas aeruginosa [24]; isolate 372, 24 h): 16 µg/mL (≈ 41.7 µM)
- MIC (Acinetobacter baumannii [25]; isolate 927, 24 h): 0.12 µg/mL (≈ 0.313 µM)
- MIC (Acinetobacter baumannii [26]; isolate 896, 24 h): 2 µg/mL (≈ 5.22 µM)
- MIC (Pseudomonas aeruginosa [27]; isolate 335, 24 h): 4 µg/mL (≈ 10.4 µM)
- MIC (Acinetobacter baumannii [28]; isolate 926, 24 h): 32 µg/mL (≈ 83.4 µM)
- MIC (Acinetobacter baumannii [29]; isolate 924, 24 h): 0.5 µg/mL (≈ 1.3 µM)
- MIC (Pseudomonas aeruginosa [30]; isolate 334, 24 h): 1 µg/mL (≈ 2.61 µM)
- MIC (Pseudomonas aeruginosa [31]; isolate 357, 24 h): 0.5 µg/mL (≈ 1.3 µM)
- MIC (Acinetobacter baumannii [32]; isolate 884, 24 h): 8 µg/mL (≈ 20.9 µM)
- MIC (Pseudomonas aeruginosa [33]; isolate 337, 24 h): 1 µg/mL (≈ 2.61 µM)
- MIC (Acinetobacter baumannii [34]; isolate 932, 24 h): 256 µg/mL (≈ 668 µM)
- MIC (Pseudomonas aeruginosa [35]; isolate 331, 24 h): 0.12 µg/mL (≈ 0.313 µM)
- MIC (Acinetobacter baumannii [44]): 4 µg/mL (≈ 10.4 µM)
- MIC (Acinetobacter baumannii [36]; isolate 897, 24 h): 1 µg/mL (≈ 2.61 µM)
- MIC (Acinetobacter baumannii [37]; isolate 900, 24 h): 0.5 µg/mL (≈ 1.3 µM)
- MIC (Acinetobacter baumannii [38]; isolate 886, 24 h): 0.5 µg/mL (≈ 1.3 µM)
- MIC (Acinetobacter baumannii [39]; isolate 931, 24 h): 2 µg/mL (≈ 5.22 µM)
- MIC (Pseudomonas aeruginosa [40]; isolate 352, 24 h): 2 µg/mL (≈ 5.22 µM)
- MIC (Pseudomonas aeruginosa [41]; isolate 355, 24 h): 0.25 µg/mL (≈ 0.652 µM)
- MIC (Pseudomonas aeruginosa [42]; isolate 361, 24 h): 0.25 µg/mL (≈ 0.652 µM)
- MIC (Pseudomonas aeruginosa [43]; isolate 322, 24 h): 2 µg/mL (≈ 5.22 µM)
